# Measured values from patent US20150299188A1, “HETEROCYCLIC COMPOUND” (priority 2012, published 2015).
# Test system: FLAP (5-lipoxygenase activating protein)
# Assay: In vitro binding test: displacement of [3H]-7-chloro-3-(5-((3-fluoropyridin-2-yl)methoxy)-2-methylphenyl)-3,4-dihydroquinazolin-2(1H)-one from Sf9 microsome fractions
# Parameters: species or system human and mouse
# Settings: Sf9 microsome fractions expressing FLAP; 100% = radioligand binding with 10 μM sodium 3-(3-(tert-butylsulfanyl)-1-(4-chlorobenzyl)-5-isopropyl-1H-indol-2-yl)-2,2-dimethylpropanoate, 0% = DMSO; test compound concentration not given
# Experimental: As an assay buffer, 100 mM Tris-HCl, pH 7.5, 140 mM NaCl, 2 mM EDTA, 0.5 mM dithiothreitol, 5% glycerol, 0.05% Tween20 was used. Sf9 microsome fractions expressing human and mouse FLAPs were dispensed by 50 μL to a 96-well plate at 2 μg/mL. Furthermore, a test compound (25 μL) diluted 4-fold of the final concentration with the assay buffer was added and mixed therewith, and the mixture was incubated at room temperature for 10 min. Furthermore, 120 nM [^3H]-7-chloro-3-(5-((3-fluoropyridin-2-yl)methoxy)-2-methylphenyl)-3,4-dihydroquinazolin-2(1H)-one was added by 25 μL, and mixed therewith, and the mixture was incubated at room temperature for 60 min. Thereafter, the cells were transferred to a 96-well GF/B Unifilter plate with a FilterMate cell harvester, and washed 3 times with a wash buffer (100 mM Tris-HCl pH 7.5, 0.05% Tween20, 200 μL) cooled to 4° C. The GF/B Unifilter plate was dried at 37° C., Microscint 0 was added and measured by TopCount NXT (PerkinElmer). As for the inhibitory activity, the inhibitory rate was calculated wherein the [^3H]-7-chloro-3-(5-((3-fluoropyridin-2-yl)methoxy)-2-methylphenyl)-3,4-dihydroquinazolin-2(1H)-one binding amount in the presence of 10 μM sodium 3-(3-(tert-butylsulfanyl)-1-(4-chlorobenzyl)-5-isopropyl-1H-indol-2-yl)-2,2-dimethylpropanoate was 100%, and the [^3H]-7-chloro-3-(5-((3-fluoropyridin-2-yl)methoxy)-2-methylphenyl)-3,4-dihydroquinazolin-2(1H)-one binding amount in the presence of DMSO was 0%.
row,inhibitory rate (%),SMILES
1,93%,"COc1ncc(C(F)(F)F)c2c1NC(=O)N(c1cc3c(cc1C)CCC(c1ncccc1F)O3)C2 (centres unmarked) [Example 107, 3-(2-(3-fluoropyridin-2-yl)-6-methyl-3,4-dihydro-2H-chromen-7-yl)-8-methoxy-5-(trifluoromethyl)-3,4-dihydropyrido[3,4-d]pyrimidin-2(1H)-one]"
2,103%,"COc1nccc2c1CN(c1cc3c(cc1C)CCC(c1ncccc1F)O3)C(=O)N2 (centres unmarked) [Example 21, 3-(2-(3-fluoropyridin-2-yl)-6-methyl-3,4-dihydro-2H-chromen-7-yl)-5-methoxy-3,4-dihydropyrido[4,3-d]pyrimidin-2 (1H)-one]"
3,102%,"COC(=O)c1ccccc1CN1C(=O)N(c2cc(OCc3ncccc3F)ccc2C)Cc2c(Cl)cccc21 [Example 295, methyl 2-((5-chloro-3-(5-((3-fluoropyridin-2-yl)methoxy)-2-methylphenyl)-2-oxo-3,4-dihydroquinazolin-1(2H)-yl)methyl)benzoate]"
4,100%,"Cc1ccc(OCc2ncccc2F)cc1N1Cc2ccc(C(=O)Nc3ccccn3)cc2NC1=O [Example 271, 3-(5-((3-fluoropyridin-2-yl)methoxy)-2-methylphenyl)-2-oxo-N-(pyridin-2-yl)-1,2,3,4-tetrahydroquinazoline-7-carboxamide]"
5,100%,"COC(=O)c1ccc2c(c1)NC(=O)N(c1cc(OCc3ccc(F)cc3F)ccc1C)C2 [Example 200, methyl 3-(5-((2,4-difluorobenzyl)oxy)-2-methylphenyl)-2-oxo-1,2,3,4-tetrahydroquinazoline-7-carboxylate]"
6,51%,"Cc1ccc(OCc2c(F)cccc2F)cc1N1Cc2[nH]ncc2NC1=O [Example 309, 6-(5-((2,6-difluorobenzyl)oxy)-2-methylphenyl)-1,4,6,7-tetrahydro-5H-pyrazolo[4,3-d]pyrimidin-5-one]"
7,97%,"Cc1cc2c(cc1N1Cc3ccc(C(=O)NC4CC4)cc3NC1=O)OC(c1ncccc1F)CC2 (centres unmarked) [Example 184, N-cyclopropyl-3-(2-(3-fluoropyridin-2-yl)-6-methyl-3,4-dihydro-2H-chromen-7-yl)-2-oxo-1,2,3,4-tetrahydroquinazoline-7-carboxamide]"
8,95%,"O=C1Nc2cccc(Cl)c2CN1c1cc(OCc2ncccc2F)c(F)cc1Cl [Example 287, 5-chloro-3-(2-chloro-4-fluoro-5-((3-fluoropyridin-2-yl)methoxy)phenyl)-3,4-dihydroquinazolin-2(1H)-one]"
9,101%,"Cc1ccc(OCc2c(F)cccc2F)cc1N1Cc2ccc(C(=O)NCCO)cc2NC1=O [Example 197, 3-(5-((2,6-difluorobenzyl)oxy)-2-methylphenyl)-N-(2-hydroxyethyl)-2-oxo-1,2,3,4-tetrahydroquinazoline-7-carboxamide]"
10,104%,"Cc1ccc(OCc2ncccc2F)cc1N1Cc2ccc(C(=O)N3CCOCC3)cc2NC1=O [Example 288, 3-(5-((3-fluoropyridin-2-yl)methoxy)-2-methylphenyl)-7-(morpholin-4-ylcarbonyl)-3,4-dihydroquinazolin-2(1H)-one]"
11,104%,"Cc1cc2c(cc1N1Cc3c(ccnc3C(C)C)NC1=O)OC(c1ncccc1F)CC2 (centres unmarked) [Example 67, 3-(2-(3-fluoropyridin-2-yl)-6-methyl-3,4-dihydro-2H-chromen-7-yl)-5-isopropyl-3,4-dihydropyrido[4,3-d]pyrimidin-2(1H)-one]"
12,105%,"O=C1Nc2ccccc2CN1c1cc(OCc2ncccc2F)ccc1F [Example 300, 3-(2-fluoro-5-((3-fluoropyridin-2-yl)methoxy)phenyl)-3,4-dihydroquinazolin-2(1H)-one]"
13,113%,"Cc1noc(C)c1-c1ncc(Cl)c2c1NC(=O)N(c1cc3c(cc1Cl)CCC(c1ncccc1F)O3)C2 (centres unmarked) [Example 126, 5-chloro-3-(6-chloro-2-(3-fluoropyridin-2-yl)-3,4-dihydro-2H-chromen-7-yl)-8-(3,5-dimethyl-1,2-oxazol-4-yl)-3,4-dihydropyrido[3,4-d]pyrimidin-2(1H)-one]"
14,110%,"Cc1ccc(OCc2ncccc2F)cc1-n1c(=O)[nH]c2c(Cl)cccc2c1=O [Example 347, 8-chloro-3-(5-((3-fluoropyridin-2-yl)methoxy)-2-methylphenyl)quinazoline-2,4(1H,3H)-dione]"
15,95%,"Cc1cc2c(cc1N1Cc3c(F)cnc(-c4cnn(C)c4)c3NC1=O)OC(c1ncccc1F)CC2 (centres unmarked) [Example 167, 5-fluoro-3-(2-(3-fluoropyridin-2-yl)-6-methyl-3,4-dihydro-2H-chromen-7-yl)-8-(1-methyl-1H-pyrazol-4-yl)-3,4-dihydropyrido[3,4-d]pyrimidin-2(1H)-one]"
16,107%,"Cc1cc2c(cc1N1Cc3cc(Cl)ncc3NC1=O)OC(c1ncccc1F)CC2 (centres unmarked) [Example 43, 6-chloro-3-(2-(3-fluoropyridin-2-yl)-6-methyl-3,4-dihydro-2H-chromen-7-yl)-3,4-dihydropyrido[3,4-d]pyrimidin-2 (1H)-one]"
17,98%,"CCOC(=O)CCCCc1ccc(OCc2ncccc2F)cc1N1Cc2ccccc2NC1=O [Example 248, ethyl 5-(4-((3-fluoropyridin-2-yl)methoxy)-2-(2-oxo-1,4-dihydroquinazolin-3(2H)-yl)phenyl)pentanoate]"
18,102%,"COc1cc2c(c(C3CC3)n1)CN(c1cc3c(cc1Cl)CCC(c1ncccc1F)O3)C(=O)N2 (centres unmarked) [Example 16, 3-(6-chloro-2-(3-fluoropyridin-2-yl)-3,4-dihydro-2H-chromen-7-yl)-5-cyclopropyl-7-methoxy-3,4-dihydropyrido[4,3-d]pyrimidin-2(1H)-one]"
19,99%,"O=C1Nc2cccc(Cl)c2CN1c1cc(OCc2ncccc2F)ccc1Br [Example 277, 3-(2-bromo-5-((3-fluoropyridin-2-yl)methoxy)phenyl)-5-chloro-3,4-dihydroquinazolin-2(1H)-one]"
20,95%,"O=c1[nH]c2ccccc2c(=O)n1-c1ccc2c(c1)OC(c1c(F)cccc1F)CC2 (centres unmarked) [Example 326, 3-(2-(2,6-difluorophenyl)-3,4-dihydro-2H-chromen-7-yl)quinazoline-2,4(1H,3H)-dione]"
21,103%,"Cc1ccc(OCc2ncccc2F)cc1N1Cc2c(O)cccc2NC1=O [Example 305, 3-(5-((3-fluoropyridin-2-yl)methoxy)-2-methylphenyl)-5-hydroxy-3,4-dihydroquinazolin-2(1H)-one]"
22,109%,"COC(=O)c1ccc2c(c1)NC(=O)N(c1cc(OCc3nccc(Cl)c3F)ccc1C)C2 [Example 246, methyl 3-(5-((4-chloro-3-fluoropyridin-2-yl)methoxy)-2-methylphenyl)-2-oxo-1,2,3,4-tetrahydroquinazoline-7-carboxylate]"
23,105%,"Cc1ccc(OCc2ncccc2F)cc1-n1c(=O)[nH]c2cc(OCC3CC3)ccc2c1=O [Example 349, 7-(cyclopropylmethoxy)-3-(5-((3-fluoropyridin-2-yl)methoxy)-2-methylphenyl)quinazoline-2,4(1H,3H)-dione]"
24,94%,"O=C1Nc2cc(-c3noc(=O)[nH]3)nc(C3CC3)c2CN1c1cc2c(cc1Cl)CCC(c1ncccc1F)O2 (centres unmarked) [Example 103, 3-(6-chloro-2-(3-fluoropyridin-2-yl)-3,4-dihydro-2H-chromen-7-yl)-5-cyclopropyl-7-(5-oxo-4,5-dihydro-1,2,4-oxadiazol-3-yl)-3,4-dihydropyrido[4,3-d]pyrimidin-2(1H)-one]"
25,92%,"COc1cncc2c1CN(c1cc3c(cc1C)CCC(c1ncccc1F)O3)C(=O)N2 (centres unmarked) [Example 23, 3-(2-(3-fluoropyridin-2-yl)-6-methyl-3,4-dihydro-2H-chromen-7-yl)-5-methoxy-3,4-dihydropyrido[3,4-d]pyrimidin-2(1H)-one]"
26,108%,"Cc1ccc(OCc2c(F)cccc2F)cc1-n1c(=O)[nH]c2cc(C(C)(C)O)ccc2c1=O [Example 336, 3-(5-((2,6-difluorobenzyl)oxy)-2-methylphenyl)-7-(2-hydroxypropan-2-yl)quinazoline-2,4(1H,3H)-dione]"
27,118%,"Cc1cc2c(cc1N1Cc3c(C(F)(F)F)ncc(Br)c3NC1=O)OC(c1ncccc1F)CC2 (centres unmarked) [Example 87, 8-bromo-3-(2-(3-fluoropyridin-2-yl)-6-methyl-3,4-dihydro-2H-chromen-7-yl)-5-(trifluoromethyl)-3,4-dihydropyrido[4,3-d]pyrimidin-2(1H)-one]"
28,107%,"Cc1ccc(OCc2ncccc2F)cc1N1Cc2c(F)cccc2NC1=O [Example 281, 5-fluoro-3-(5-((3-fluoropyridin-2-yl)methoxy)-2-methylphenyl)-3,4-dihydroquinazolin-2(1H)-one]"
29,106%,"COC(=O)c1ccc(OCc2ncccc2F)cc1N1Cc2ccccc2NC1=O [Example 219, methyl 4-((3-fluoropyridin-2-yl)methoxy)-2-(2-oxo-1,4-dihydroquinazolin-3(2H)-yl)benzoate]"
